Measured values from ChEMBL document CHEMBL1149058, “Further Chemical Studies of Mediterranean and Atlantic Hypselodoris Nudibranchs: A New Furanosesquiterpenoid from Hypsdodoris webbi” (J Nat Prod, 1994).

Assays:
Gambusia affinis = experiment: Ichthyotoxicity against Gambusia affinis at 10 ppm within 24 hrs; format: organism-based; conditions: in vivo
Artemia salina = experiment: Toxicity against Artemia salina; format: organism-based; conditions: in vivo

SMILES: CC1=C[C@@H]2Cc3occc3C(C)(C)[C@@H]2C=C1
- Activity (Gambusia affinis): Toxic
- LD50 (Artemia salina): 1.52 ppm
